In patent US9963462B2 (priority 2015, dated 2018) one finds IC50 data, which are given here for 71 compounds.

This assay concerns BH4 levels in SK-N-BE (2) cells. In words: SKN-N-BE (2) cellular assay, BH4 levels by LC-MS. To be noted: Homo sapiens, SKNBE2, read-out: SK-N-BE(2) IC50, SK-N-BE (2) cells, BH4 levels by LC-MS. It counts as cell-based.

For orientation: IC50 means the concentration that inhibits the measured activity by half. As for `Cc1c(C(=O)N2CCCCC2C(F)(F)F)cnn1-c1nn2cccc2c(=O)[nH]1` (centres unmarked) [Q-0920], the IC50 came out at 500 nM.
Regarding `Cc1c(C(=O)N2CCC3(CCOC3)C2)cnn1-c1nn2cccc2c(=O)[nH]1` (centres unmarked) [Q-0922], the IC50 amounted to 1000 nM.
With `Cc1c(C(=O)N2CCCC(C)(C#N)C2)cnn1-c1nn2cccc2c(=O)[nH]1` (centres unmarked) [Q-0923], the IC50 stood at 1300 nM.
As for `CCN(C)C1CCN(C(=O)c2cnn(-c3nn4cccc4c(=O)[nH]3)c2C)CC1` [Q-0925], the IC50 came out at 500 nM.
In the case of `Cc1c(C(=O)N2CC3(CCN(C(=O)OC(C)(C)C)CC3)C2)cnn1-c1nc2c(c(=O)[nH]1)CCC2` [Q-0928], the concentration for half-maximal inhibition (IC50) was found to be 200 nM.
For the compound `Cc1c(C(=O)N2CC[C@H]3CN(C(=O)OC(C)(C)C)[C@H]3C2)cnn1-c1nn2cccc2c(=O)[nH]1` [Q-0929], the half-maximal inhibitory concentration (IC50) amounted to 2000 nM.
Regarding `Cc1c(C(=O)N2CC3(CCCC3)C2)cnn1-c1nc2c(c(=O)[nH]1)CCC2` [Q-0931], the concentration for half-maximal inhibition (IC50) is 200 nM.
As for `Cc1c(C(=O)N2CCC3(CC2)CC3c2noc(-c3cccnc3)n2)cnn1-c1nn2cccc2c(=O)[nH]1` (centres unmarked) [Q-0932], the half-inhibitory concentration (IC50) came to 700 nM.
As to `Cc1c(C(=O)N2CCN(C3CC4CCC3C4)CC2)cnn1-c1nn2cccc2c(=O)[nH]1` (centres unmarked) [Q-0933], the IC50 was determined as 200 nM.
For the compound `Cc1c(C(=O)N2CC3CCCC(C3)C2)cnn1-c1nn2cccc2c(=O)[nH]1` [Q-0934], the concentration for half-maximal inhibition (IC50) turned out to be 300 nM.
`Cc1c(C(=O)N2CCC(N3CCCC3=O)CC2)cnn1-c1nn2cccc2c(=O)[nH]1` [Q-0935]: the IC50 stood at 1600 nM.
For the compound `Cc1c(C(=O)N2CCN(c3nc4ccccc4s3)CC2)cnn1-c1nn2cccc2c(=O)[nH]1` [Q-0936], the IC50 is 200 nM.
As for `COC1(C2CC2)CCN(C(=O)c2cnn(-c3nn4cccc4c(=O)[nH]3)c2C)CC1` [Q-0938], the IC50 is 100 nM.
As for `Cc1c(C(=O)N2CCC(c3nc(-c4ccccc4)cs3)CC2)cnn1-c1nn2cccc2c(=O)[nH]1` [Q-0939], the figure is 83 nM; as for `Cc1c(C(=O)N2CC(Cc3ccc(C(F)(F)F)cc3)C2)cnn1-c1nn2cccc2c(=O)[nH]1` [Q-0940], 800 nM.
With `Cc1c(C(=O)N2CCC(n3ccnc3)CC2)cnn1-c1nn2cccc2c(=O)[nH]1` [Q-0942], the IC50 worked out at 9100 nM.
As for `Cc1c(C(=O)N2CC3(CN(CC(F)F)C3)C2)cnn1-c1nn2cccc2c(=O)[nH]1` [Q-0945], the IC50 came to 1000 nM.
Consider `Cc1c(C(=O)N2CC3CC(C)N(C(=O)C(C)(C)C)C3C2)cnn1-c1nn2cccc2c(=O)[nH]1` (centres unmarked) [Q-0946], for which the 50% inhibitory concentration (IC50) came to 1100 nM.
Consider `Cc1c(C(=O)N2CC(CC(F)(F)F)C2)cnn1-c1nn2cccc2c(=O)[nH]1` [Q-0947], for which the IC50 was found to be 1000 nM.
Take `Cc1c(C(=O)N2CCN(CC(F)(F)F)CC2(C)C)cnn1-c1nn2cccc2c(=O)[nH]1` [Q-0949, 2-(4-(2,2-dimethyl-4-(2,2,2-trifluoroethyl)piperazine-1-carbonyl)-5-methyl-1H-pyrazol-1-yl)pyrrolo[1,2-f][1,2,4]triazin-4(3H)-one]: the IC50 turned out to be 200 nM.
In the case of `Cc1c(C(=O)N2CCC(N3CCOCC3)C2)cnn1-c1nn2cccc2c(=O)[nH]1` (centres unmarked) [Q-0950], the IC50 was 6200 nM.
With `Cc1c(C(=O)N2CCC3CCC(=O)N(C4CC4)C3C2)cnn1-c1nn2cccc2c(=O)[nH]1` (centres unmarked) [Q-0954], the half-inhibitory concentration (IC50) stood at 9000 nM.
In the case of `Cc1c(C(=O)N2CCCC(c3n[nH]c(C4CC4)n3)C2)cnn1-c1nn2cccc2c(=O)[nH]1` (centres unmarked) [Q-0955], the concentration for half-maximal inhibition (IC50) amounted to 10000 nM.
In the case of `COCC1(C#N)CCN(C(=O)c2cnn(-c3nn4cccc4c(=O)[nH]3)c2C)CC1` [Q-0957], the half-inhibitory concentration (IC50) amounted to 1000 nM.
`Cc1c(C(=O)N2CCC(c3nncn3C3CC3)CC2)cnn1-c1nn2cccc2c(=O)[nH]1` [Q-0958]: the half-maximal inhibitory concentration (IC50) stood at 10000 nM.
With `Cc1c(C(=O)N2CCC(C(F)(F)F)C2(C)C)cnn1-c1nn2cccc2c(=O)[nH]1` (centres unmarked) [Q-0959] the figure was 1000 nM; with `Cc1c(C(=O)N2CCC(C(F)(F)F)C3(CCC3)C2)cnn1-c1nn2cccc2c(=O)[nH]1` (centres unmarked) [Q-0960], 200 nM; with `Cc1c(C(=O)N2C[C@@H]3[C@@H](CF)[C@@H]3C2)cnn1-c1nn2cccc2c(=O)[nH]1` [Q-0961], 700 nM.
With `Cc1c(C(=O)N2CCC(F)(c3ccccn3)CC2)cnn1-c1nn2cccc2c(=O)[nH]1` [Q-0962] the figure was 300 nM; with `Cc1c(C(=O)N2CCN(C(C#N)c3ccc(F)cc3)CC2)cnn1-c1nn2cccc2c(=O)[nH]1` (centres unmarked) [Q-0963], 4000 nM.
Take `Cc1c(C(=O)N2CCN(C(C#N)c3cccs3)CC2)cnn1-c1nn2cccc2c(=O)[nH]1` (centres unmarked) [Q-0964]: the half-maximal inhibitory concentration (IC50) came to 8900 nM.
As to `Cc1c(C(=O)N2CC3CCC2c2ccccc23)cnn1-c1nn2cccc2c(=O)[nH]1` (centres unmarked) [Q-0965], the concentration for half-maximal inhibition (IC50) is 100 nM.
As for `Cc1c(C(=O)N2CCC(CC(F)(F)F)C2)cnn1-c1nn2cccc2c(=O)[nH]1` (centres unmarked) [Q-0966], the IC50 was 1300 nM.
As to `Cc1c(C(=O)N2CC(C(F)(F)F)CC(C(F)(F)F)C2)cnn1-c1nn2cccc2c(=O)[nH]1` (centres unmarked) [Q-0967], the IC50 came out at 1900 nM.
As for `Cc1c(C(=O)N2[C@H](C)CN(C(=O)OC(C)(C)C)C[C@@H]2C)cnn1-c1nn2cccc2c(=O)[nH]1` [Q-0968], the figure is 400 nM.
With `Cc1c(C(=O)N2C3CCC2CC(N(C)C(=O)c2ccccc2)C3)cnn1-c1nn2cccc2c(=O)[nH]1` (centres unmarked) [Q-0970] the figure was 400 nM.
As for `Cc1c(C(=O)N2C[C@@H]3CCS(=O)(=O)[C@@H]3C2)cnn1-c1nn2cccc2c(=O)[nH]1` [Q-0971], the figure is 7200 nM; as for `Cc1ccc(OC2CC3CCC(C2)N3C(=O)c2cnn(-c3nn4cccc4c(=O)[nH]3)c2C)cc1` (centres unmarked) [Q-0974], 100 nM.
Take `Cc1c(C(=O)N2CCN(c3nnc(C(F)(F)F)s3)CC2)cnn1-c1nn2cccc2c(=O)[nH]1` [Q-0975]: the IC50 came out at 1300 nM.
For the compound `COC1CCN(C(=O)c2cnn(-c3nn4cccc4c(=O)[nH]3)c2C)CC1` [Q-0976], the IC50 came to 1100 nM.
In the case of `Cc1c(C(=O)N2CC(OCC(F)F)C2)cnn1-c1nn2cccc2c(=O)[nH]1` [Q-0979], the half-inhibitory concentration (IC50) was 1400 nM.
Regarding `Cc1c(C(=O)N2CCN(CC(F)(F)F)C(=O)C2)cnn1-c1nn2cccc2c(=O)[nH]1` [Q-0980], the half-maximal inhibitory concentration (IC50) is 1300 nM.
Take `Cc1c(C(=O)N2CC(N3CC(F)C3)C2)cnn1-c1nn2cccc2c(=O)[nH]1` [Q-0981]: the half-inhibitory concentration (IC50) stood at 1400 nM.
With `Cc1c(C(=O)N2CCN(C(C#N)C(C)C)CC2)cnn1-c1nn2cccc2c(=O)[nH]1` (centres unmarked) [Q-0982], the IC50 was determined as 10000 nM.
As for `Cc1c(C(=O)N2CCC(c3nnc4n3CCC4)CC2)cnn1-c1nn2cccc2c(=O)[nH]1` [Q-0983], the figure is 10000 nM.
As for `Cc1c(C(=O)N2CCC(n3nccc3C(F)(F)F)CC2)cnn1-c1nn2cccc2c(=O)[nH]1` [Q-0984], the figure is 400 nM; as for `Cc1c(C(=O)N2CC(N3CCC3)C2)cnn1-c1nn2cccc2c(=O)[nH]1` [Q-0985], 9200 nM; as for `Cc1c(C(=O)N2CC(OCC(F)(F)F)C2)cnn1-c1nn2cccc2c(=O)[nH]1` [Q-0987], 1100 nM.
On to `Cc1c(C(=O)N2CCC(C3(C#N)CCCC3)CC2)cnn1-c1nn2cccc2c(=O)[nH]1` [Q-0988], for which the IC50 is 69 nM.
On to `Cc1c(C(=O)N2C3CCCC2CN(Cc2ccccc2)C3)cnn1-c1nn2cccc2c(=O)[nH]1` [Q-0989], for which the IC50 turned out to be 900 nM.
On to `Cc1c(C(=O)N2CCC(F)(c3ccc(Cl)cc3)CC2)cnn1-c1nn2cccc2c(=O)[nH]1` [Q-0990], for which the concentration for half-maximal inhibition (IC50) is 200 nM.
On to `O=C(c1cn(-c2nn3cccc3c(=O)[nH]2)nc1Cl)N1CCC(C(F)(F)F)CC1` [Q-0991], for which the IC50 worked out at 100 nM.
Turning to `Cc1c(C(=O)N2CCC(N3CCC(F)(F)C3)C2)cnn1-c1nn2cccc2c(=O)[nH]1` (centres unmarked) [Q-0994], the half-maximal inhibitory concentration (IC50) is 3000 nM.
With `Cc1c(C(=O)N2CCC(F)(c3ccc(F)cc3)C2)cnn1-c1nn2cccc2c(=O)[nH]1` (centres unmarked) [Q-0996] the figure was 1900 nM; with `Cc1c(C(=O)N2CC[C@H](OCc3cnc(Cl)s3)C2)cnn1-c1nn2cccc2c(=O)[nH]1` [Q-0997], 1000 nM.
On to `Cc1c(C(=O)N2CCC(C3(C#N)CCC3)CC2)cnn1-c1nn2cccc2c(=O)[nH]1` [Q-0999], for which the half-maximal inhibitory concentration (IC50) turned out to be 200 nM.
With `Cc1c(C(=O)N2CC(OCc3ccc(F)c(F)c3)C2)cnn1-c1nn2cccc2c(=O)[nH]1` [Q-1000], the half-inhibitory concentration (IC50) amounted to 900 nM.
With `Cc1c(C(=O)N2CC3CC2C[C@@H]3C#N)cnn1-c1nn2cccc2c(=O)[nH]1` (some centres unmarked) [Q-1001], the IC50 was 1800 nM.
Turning to `Cc1c(C(=O)N2CC3CC2C[C@H]3C#N)cnn1-c1nn2cccc2c(=O)[nH]1` (some centres unmarked) [Q-1002], the IC50 was determined as 3400 nM.
Consider `Cc1c(C(=O)N2Cc3cc(C(F)(F)F)cnc3C2)cnn1-c1nn2cccc2c(=O)[nH]1` [Q-1004], for which the IC50 was found to be 3100 nM.
For `COC1(C(F)(F)F)CCCN(C(=O)c2cnn(-c3nn4cccc4c(=O)[nH]3)c2C)C1` (centres unmarked) [Q-1006], the half-inhibitory concentration (IC50) is 1400 nM.
In the case of `Cc1c(C(=O)Nc2ccc(F)cc2C(C)(C)O)cnn1-c1nn2cccc2c(=O)[nH]1` [Q-1008], the IC50 was found to be 300 nM.
With `Cc1c(C(=O)N2CC(N3CC[C@@H](F)C3)C2)cnn1-c1nn2cccc2c(=O)[nH]1` [Q-1009] the figure was 2000 nM; with `Cc1c(C(=O)N2CCC(N3CC[C@@H](F)C3)C2)cnn1-c1nn2cccc2c(=O)[nH]1` (some centres unmarked) [Q-1010], 4000 nM.
With `Cc1c(C(=O)N2CC[C@@H](OCc3cnc(Cl)s3)C2)cnn1-c1nn2cccc2c(=O)[nH]1` [Q-1011] the figure was 800 nM; with `Cc1c(C(=O)N2CCN(C(=O)Cc3ccccc3F)CC2)cnn1-c1nn2cccc2c(=O)[nH]1` [Q-1012], 1300 nM.
As for `Cc1c(C(=O)N2Cc3cc(Cl)cnc3C2)cnn1-c1nn2cccc2c(=O)[nH]1` [Q-1013], the figure is 1500 nM; as for `Cc1c(C(=O)N2CCC[C@@H](OCC(F)(F)F)C2)cnn1-c1nn2cccc2c(=O)[nH]1` [Q-1014], 1400 nM; as for `Cc1c(C(=O)N2CCC(N3CCCC(C(F)(F)F)C3)CC2)cnn1-c1nn2cccc2c(=O)[nH]1` (centres unmarked) [Q-1015], 400 nM.
For `Cc1c(C(=O)N2CCC(N3CCC[C@@H](F)C3)C2)cnn1-c1nn2cccc2c(=O)[nH]1` (some centres unmarked) [Q-1016], the IC50 was 2400 nM.
As for `CCC(C#N)C1CCN(C(=O)c2nnn(-c3nn4cccc4c(=O)[nH]3)c2C)CC1` (centres unmarked) [Q-1017], the figure is 300 nM.
